Measured values as given in patent US5449676A, “Pyridazines” (priority 1991, dated 1995).
Like-named read-outs stand apart in the source and are kept apart here.

Experiments:
[1] = system: tracheal rings; assay: bronchospasmolytic effect on the chain of tracheal rings from guinea pigs in vitro; assay type: cell-based; conditions: for -lg[EC50 ] / EC50: negative logarithm of EC50 mol/l, 50% of maximum achievable relaxation; for [EC50 ] theophylline/[EC50 ] substance: ratio of EC50 values, theophylline vs substance; for EC50: Cavia porcellus, read-out: -lg[EC50 ] (converted)
Method: The bronchospasmolytic effect of the compounds on the chain of tracheal rings from guinea pigs was tested in vitro as follows:
Thus, a complete dose-effect plot for the test substance is obtained over a period of 20 to 30 minutes. The particular relaxation is expressed as a percentage fraction of the maximum relaxation achievable by administration of (-)isoprenaline (10^-6 mol/l).

[2] = system: acetylcholine-induced bronchospasm; assay: protective effect against acetylcholine-induced bronchospasm in conscious guinea pigs; assay type: in vivo; conditions: oral, 30 minutes after administration, percentage of protected animals; for responders at 10 µmol/kg: 10 μmol/kg
Method: In addition, the bronchospasmolytic effect was tested on the "protective effect against acetylcholine-induced bronchospasm in conscious guinea pigs" model:
Guinea pigs (250-350 g) are exposed in a closed Plexiglass cylinder (volume […] ) to an acetylcholine mist (0.06% in 0.9% sodium chloride solution; Heyer Use 77 ultrasonic atomizer) before administration of the substance and twice at an interval of 20 minutes after administration of the substance. The time from the start of atomization to the onset of marked breathing difficulties (in some cases hypoxic convulsion in the lateral position) is measured and called the latency time. An increase in the latency time after administration of the substance to at least three times the average latency time before administration of the substance is regarded as a protective effect, and the number of protected animals in the group is determined. […]
[…] After 30 minutes, the animals are again exposed to the acetylcholine mist and the latency times are measured. An increase in the latency time to at least three times the length is regarded as a protective effect.

[3] = system: histamine-induced bronchospasm; assay: histamine-induced bronchospasm in anesthetized guinea pigs; assay type: in vivo; conditions: for inhibition in vivo at 20 µmol/kg / inhibition in vivo at 60 µmol/kg / inhibition in vivo at 100 µmol/kg / inhibition in vivo at 5 µmol/kg / inhibition in vivo at 10 µmol/kg: Cavia porcellus; for inhibition in vivo at 5 µmol/kg: 5 μmol/kg; for inhibition in vivo at 10 µmol/kg: 10 μmol/kg
Method: One histamine spasm before administration of the substance was compared with several histamine spasms after administration of the substance. The test substances were administered intravenously (i.v.) and/or intrajejunally (i.j.).

[4] = system: PDE IV; assay: inhibition of PDE IV isolated from human polymorphonuclear neutrophilic cells (PMNs); assay type: biochemical; conditions: for PDE IV hum. PMNs -lg[IC50 ]: negative logarithm of IC50, cAMP 0.5 μmol/l; for [IC50 ] PDE III/[IC50 ] PDE IV PMNs: selectivity ratio, PDE III hum. platelets vs PDE IV hum. PMNs
Text: (§1) The specific inhibition of phosphodiesterase IV (PDE IV=high-affinity cAMP-PDE which cannot be inhibited by cGMP, rolipram-sensitive) is regarded as particularly indicative of an expected bronchospasmolytic and/or antiinflammatory effect. The specificity of the inhibition is moreover described by the ratio [IC50 ]PDE-III /[IC50 ]PDE-IV (PDE III=high-affinity cAMP-PDE which can be inhibited by cGMP) [H. Hidaka et al., Adv. Cycl. Nucl. Res. 13, 145 (1984); TiPS 5, 237 (1984); R. Weishaar et al., J. Med. Chem. 28, (1985); S. A. Harrison et al., Molec. Pharmac. 29, 506 (1986); J. Klein-Tebbe et al., Allergologie 12, 12 (1989); C. Schudt et al., Allergologie 12, 12, (1989); C. Schudt et al., Agents and Action 1991 in press; C. D. Nicholson et al., TiPS 12, (1), 19 (1991)].
(§2) For this reason, the PDE inhibition by the compounds according to the invention was determined on a PDE III isolated from human platelets and on PDE IV isolated from human polymorphonuclear neutrophilic cells (PMNs) and from the dog trachea. Phosphodiesterases III and IV are isolated by chromatography as described by Polson et al., Biochem. Pharmacol. 31, 3403-3406 (1982).
(§3) The substances are dissolved and diluted further in DMSO. 2.1 μl samples from a series of solutions diluted up to 100 fold are mixed with 212 μl of reaction mixture. The reaction mixture contains Hepes (100 mmol/l), DTE (5 mmol/l), MgCl2 (5 mmol/l), CaCl2 (10 μmol/l), BSA fraction V 0.5 mg, ml, cAMP 0.5 μmol/l, 2,8-^3 H-cAMP 250,000 cpm/ml (0.3 μCi/ml, S.A. […]), SV (snake venom) 25 μg/212 μl of test mixture.

[5] = molecular target: T1, PDE III (Homo sapiens, UniProt Q14432); assay: inhibition of PDE III isolated from human platelets; assay type: biochemical; conditions: negative logarithm of IC50; cAMP 0.5 μmol/l; read-out: PDE III hum. platelets -lg[IC50 ] (converted)
T1 construct: PDE III isolated from human platelets; from tissue; host or cells: human platelets
Text: as §1, §2, §3

[6] = Cavia porcellus, 0.5 h, 100 μmol/kg
[7] = 1 h, read-out: % inhibition (0-1 h) of the histamine-induced decrease in Vmax
[8] = 1 h, read-out: % inhibition after 1 h of the histamine-induced decrease in Vmax
[9] = iv, 1 h, read-out: % inhibition (0-1 h) of the histamine-induced decrease in Vmax
[10] = iv, 1 h, read-out: % inhibition after 1 h of the histamine-induced decrease in Vmax
[11] = iv, after 1 h, read-out: % inhibition after 1 h of the histamine-induced decrease in Vmax
[12] = iv, average 0-1 h after administration, read-out: % inhibition (0-1 h) of the histamine-induced decrease in Vmax
[13] = iv, 20 μmol/kg, after 1 h, read-out: % inhibition after 1 h of the histamine-induced decrease in Vmax
[14] = iv, 20 μmol/kg, average 0-1 h after administration, read-out: % inhibition (0-1 h) of the histamine-induced decrease in Vmax

T1 sequence (Q14432 whole entry): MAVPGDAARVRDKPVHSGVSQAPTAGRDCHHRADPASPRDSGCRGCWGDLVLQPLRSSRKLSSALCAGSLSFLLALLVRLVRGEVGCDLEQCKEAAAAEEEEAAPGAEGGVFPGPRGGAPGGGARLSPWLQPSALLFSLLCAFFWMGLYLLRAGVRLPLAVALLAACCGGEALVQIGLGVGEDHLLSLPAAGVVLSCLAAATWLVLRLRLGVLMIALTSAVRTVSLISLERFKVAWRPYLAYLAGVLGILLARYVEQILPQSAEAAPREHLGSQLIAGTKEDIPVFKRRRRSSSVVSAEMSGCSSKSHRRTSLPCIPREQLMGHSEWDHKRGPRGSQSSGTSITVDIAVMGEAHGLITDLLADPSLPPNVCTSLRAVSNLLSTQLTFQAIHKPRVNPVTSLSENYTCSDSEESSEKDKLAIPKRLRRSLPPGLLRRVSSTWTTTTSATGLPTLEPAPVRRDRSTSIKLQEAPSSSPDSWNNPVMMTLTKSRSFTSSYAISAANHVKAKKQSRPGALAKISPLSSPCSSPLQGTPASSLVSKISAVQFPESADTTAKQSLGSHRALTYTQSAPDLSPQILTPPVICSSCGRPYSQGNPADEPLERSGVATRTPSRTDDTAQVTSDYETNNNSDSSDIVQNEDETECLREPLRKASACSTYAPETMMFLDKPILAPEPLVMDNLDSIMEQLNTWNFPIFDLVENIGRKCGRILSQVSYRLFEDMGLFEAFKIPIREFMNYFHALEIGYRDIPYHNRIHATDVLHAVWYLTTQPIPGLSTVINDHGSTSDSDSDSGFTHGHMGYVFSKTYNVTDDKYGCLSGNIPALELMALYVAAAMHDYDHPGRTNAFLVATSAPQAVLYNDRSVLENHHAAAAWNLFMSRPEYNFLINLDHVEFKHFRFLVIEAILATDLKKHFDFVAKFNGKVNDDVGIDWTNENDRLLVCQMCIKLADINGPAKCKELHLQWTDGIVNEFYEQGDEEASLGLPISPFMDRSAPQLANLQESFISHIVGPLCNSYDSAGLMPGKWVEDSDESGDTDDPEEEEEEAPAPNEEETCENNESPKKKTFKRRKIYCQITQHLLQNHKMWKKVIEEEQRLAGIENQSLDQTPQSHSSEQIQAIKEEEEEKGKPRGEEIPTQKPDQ

Molecule	[EC50 ] theophylline/[EC50 ] substance [1]	responders at 100 µmol/kg [2, 6] [%]	PDE IV hum. PMNs -lg[IC50 ] [4]	EC50 [1] [nM]	[IC50 ] PDE III/[IC50 ] PDE IV PMNs [4]	IC50 [5] [µM]	further results
3-amino-6-(4-difluoromethoxy-3-ethoxyphenyl)pyridazine 2-oxide [Serial No. 19]	14.5						-lg[EC50 ] [1]: 5.03; % protective effect ([2]; 100 μmol/kg): 35%
3-amino-6-(4-difluoromethoxy-3-methoxyphenyl)pyridazine 2-oxide [Serial No. 20]	33.2						-lg[EC50 ] [1]: 5.39; % protective effect ([2]; 100 μmol/kg): 50%
3-amino-6-(4-difluoromethoxy-3-methoxyphenyl)pyridazine [Serial No. 11]	20.4						-lg[EC50 ] [1]: 5.18; % inhibition after 1 h of the histamine-induced decrease in Vmax ([3]; i.v., 20 μmol/kg, after 1 h): is; % inhibition (0-1 h) of the histamine-induced decrease in Vmax ([3]; i.v., 20 μmol/kg, average 0-1 h after administration): 22%; % protective effect ([2]; 30 μmol/kg): 35%; % protective effect ([2]; 100 μmol/kg, listed as 4): 35%; % protective effect ([2]; 100 μmol/kg, listed as 6): 85%
COc1cc(-c2ccc(N)nn2)ccc1OC(C)C [Serial No. 5, 3-amino-6-[3-methoxy-4-(1-methylethoxy)phenyl]pyridazine]		45					
Cn1c(=O)c2[nH]cnc2n(C)c1=O [Theophylline, reference compound]		20	3.77				inhibition in vivo at 20 µmol/kg [3, 7]: 11%; inhibition in vivo at 60 µmol/kg [3, 7]: 37%; inhibition in vivo at 100 µmol/kg [3, 7]: 45%; inhibition in vivo at 20 µmol/kg [3, 8]: 8%; inhibition in vivo at 60 µmol/kg [3, 8]: 42%; inhibition in vivo at 100 µmol/kg [3, 8]: 44%; inhibition in vivo at 20 µmol/kg [3, 9]: 13%; inhibition in vivo at 60 µmol/kg [3, 9]: 25%; inhibition in vivo at 100 µmol/kg [3, 9]: 34%; inhibition in vivo at 20 µmol/kg [3, 10]: 5%; inhibition in vivo at 60 µmol/kg [3, 10]: 12%; inhibition in vivo at 100 µmol/kg [3, 10]: 22%; responders at 200 µmol/kg ([2]; Cavia porcellus, 0.5 h, 200 μmol/kg): 40%; responders at 400 µmol/kg ([2]; Cavia porcellus, 0.5 h, 400 μmol/kg): 70%
Nc1ccc(-c2ccc(OC(F)F)c(OC3CCCC3)c2)nn1 [compound 14]	20.4		7.15	6610	1466	53.7	
CC(C)Oc1cc(-c2ccc(N)nn2)ccc1OC(F)F [compound 15]			6.78		794	107	
Nc1ccc(-c2ccc(OC(F)F)c(OCC(F)(F)F)c2)nn1 [compound 16]			6.88		2515	331	
CC(C)COc1cc(-c2ccc(N)nn2)ccc1OC(F)F [compound 17]			6,96		1466	151	
Nc1ccc(-c2ccc(OC(F)F)c(OCC3CC3)c2)nn1 [compound 18]		75	7.47		4265	145	inhibition in vivo at 5 µmol/kg [3, 11]: 49%; inhibition in vivo at 5 µmol/kg [3, 12]: 40%; inhibition in vivo at 10 µmol/kg [3, 11]: 38%; inhibition in vivo at 10 µmol/kg [3, 12]: 33%; inhibition in vivo at 20 µmol/kg [3, 13]: 35%; inhibition in vivo at 20 µmol/kg [3, 14]: 31%; inhibition in vivo at 10 µmol/kg ([3]; i.j. admin., after 1 h, read-out: % inhibition after 1 h of the histamine-induced decrease in Vmax): 43%; inhibition in vivo at 10 µmol/kg ([3]; i.j. admin., average 0-1 h after administration, read-out: % inhibition (0-1 h) of the histamine-induced decrease in Vmax): 32%; responders at 10 µmol/kg ([2]; Cavia porcellus, 0.5 h): 75%
CCOc1ccc(-c2ccc(N)[n+]([O-])n2)cc1OC(F)F [compound 21]	240		5.19	562	6.9	44.7	
CC(C)Oc1cc(-c2ccc(N)[n+]([O-])n2)ccc1OC(F)F [compound 22]	44.7	60	6.26	3020	21.9	12	
CC(C)COc1cc(-c2ccc(N)[n+]([O-])n2)ccc1OC(F)F [compound 23]	44.7		7.03	3020	1350	126	
Nc1ccc(-c2ccc(OC(F)F)c(OC3CCCC3)c2)n[n+]1[O-] [compound 24]	65.5	60	7.24	2040	832	47.9	
Nc1ccc(-c2ccc(OC(F)F)c(OCC(F)(F)F)c2)n[n+]1[O-] [compound 25]	380	70	6.42	355	186	70.8	inhibition in vivo at 20 µmol/kg [3, 13]: 33%; inhibition in vivo at 20 µmol/kg [3, 14]: 34%; responders at 10 µmol/kg ([2]; Cavia porcellus, 0.5 h): 45%
